From US20130142831A1, “COMPOUNDS FOR INFLAMMATION AND IMMUNE-RELATED USES” (Synta Pharmaceuticals Corp., priority 2004, published 2013)

The molecules below were run on IL-2 production (assay: Inhibition of IL-2 production in PHA-activated Jurkat cells). Conditions: Homo sapiens, PHA 2.5 μg/mL, 20 hours, bins given in nM.
Format: cell-based
Experimental: Jurkat cells were placed in a 96 well plate (0.5 million cells per well in 1% FBS medium) then test compounds of this invention were added at different concentrations. After 10 minutes, the cells were activated with PHA (final concentration 2.5 μg/mL) and incubated for 20 hours at 37° C. under CO2. The final volume was 200 μL. Following incubation, the cells were centrifuged and the supernatants collected and stored at −70° C. prior to assaying for IL-2 production. A commercial kit (IL-2 Eli-pair, Diaclone Research, Besancon, France) was used to detect production of IL-2, from which dose response curves were obtained. The IC50 value was calculated as the concentration at which. 50% of maximum IL-2 production after stimulation was inhibited versus a non-stimulation control.

Structure (SMILES)	IC50 [nM]
COc1ccc2c(c1)nc(C(F)(F)F)n2-c1ccc(NC(=O)c2ccc3ccccc3c2)cc1 [Compound 74, Naphthalene-2-carboxylic acid {N-[4-(2-trifluoromethyl-5-methoxy-benzoimidazol-1-yl)-phenyl]} amide]	100 to 500
COc1ccc2c(c1)nc(C(F)(F)F)n2-c1ccc(NC(=O)c2ccc(C)cc2)cc1 [Compound 76, 4-Methyl-N-[4-(2-trifluoromethyl-5-methoxy-benzoimidazol-1-yl)-phenyl]-benzamide]	100 to 500
COc1ccc2c(c1)nc(C(F)(F)F)n2-c1ccc(NC(=O)c2ccc(C#N)cc2)cc1 [Compound 77, 4-Cyano-N-[4-(2-trifluoromethyl-5-methoxy-benzoimidazol-1-yl)-phenyl]-benzamide]	100 to 500
COc1ccc2c(c1)nc(C(F)(F)F)n2-c1ccc(NC(=O)c2ccc([N+](=O)[O-])cc2)cc1 [Compound 78, 4-Nitro-N-[4-(2-trifluoromethyl-5-methoxy-benzoimidazol-1-yl)-phenyl]-benzamide]	100 to 500
CCc1ccc(C(=O)Nc2ccc(-n3c(C(F)(F)F)nc4cc(OC)ccc43)cc2)cc1 [Compound 79, 4-Ethyl-N-[4-(2-trifluoromethyl-5-methoxy-benzoimidazol-1-yl)-phenyl]-benzamide]	100 to 500
COc1ccc2c(c1)nc(C(F)(F)F)n2-c1ccc(NC(=O)c2ccc(C(F)(F)F)cc2)cc1 [Compound 80, 4-Trifluoromethyl-N-[4-(2-trifluoromethyl-5-methoxy-benzoimidazol-1-yl)-phenyl]-benzamide]	100 to 500
COc1ccc2c(c1)nc(C(F)(F)F)n2-c1ccc(NC(=O)c2cc([N+](=O)[O-])cc([N+](=O)[O-])c2)cc1 [Compound 81, 3,5-Dinitro-N-[4-(2-trifluoromethyl-5-methoxy-benzoimidazol-1-yl)-phenyl]-benzamide]	100 to 500
CCCC(=O)Nc1ccc(-n2c(C(F)(F)F)nc3cc(OC)ccc32)cc1 [Compound 82, N-[4-(2-trifluoromethyl-5-methoxy-benzoimidazol-1-yl)-phenyl]-butyramide]	100 to 500
COc1ccc2c(c1)nc(C(F)(F)F)n2-c1ccc(NC(=O)c2cccc3ccccc23)cc1 [Compound 83, Naphthalene-1-carboxylic acid {N-[4-(2-trifluoromethyl-5-methoxy-benzoimidazol-1-yl)-phenyl]} amide]	100 to 500
COc1ccc2c(c1)nc(C(F)(F)F)n2-c1ccc(NC(=O)C=C(C)C)cc1 [Compound 84, 3-Methyl-N-[4-(2-trifluoromethyl-5-methoxy-benzoimidazol-1-yl)-phenyl]-but-2-enoic acid amide]	100 to 500
CCCc1ccc(C(=O)Nc2ccc(-n3c(C(F)(F)F)nc4cc(OC)ccc43)cc2)cc1 [Compound 85, 4-Propyl-N-[4-(2-trifluoromethyl-5-methoxy-benzoimidazol-1-yl)-phenyl]-benzamide]	100 to 500
COc1ccc2c(c1)nc(C(F)(F)F)n2-c1ccc(NC(=O)c2cccs2)cc1 [Compound 86, Thiophene-2-carboxylic acid {N-[4-(2-trifluoromethyl-5-methoxy-benzoimidazol-1-yl)-phenyl]} amide]	100 to 500
CCCCC(CC)C(=O)Nc1ccc(-n2c(C(F)(F)F)nc3cc(OC)ccc32)cc1 (stereo not drawn) [Compound 87, 2-Ethyl-N-[4-(2-trifluoromethyl-5-methoxy-benzoimidazol-1-yl)-phenyl]-hexanoic acid amide]	100 to 500
CCCCCCC(=O)Nc1ccc(-n2c(C(F)(F)F)nc3cc(OC)ccc32)cc1 [Compound 88, N-[4-(2-trifluoromethyl-5-methoxy-benzoimidazol-1-yl)-phenyl]-heptanoic acid amide]	100 to 500
COc1cccc(C(=O)Nc2ccc(-n3c(C(F)(F)F)nc4cc(OC)ccc43)cc2)c1 [Compound 89, 3-Methoxy-N-[4-(2-trifluoromethyl-5-methoxy-benzoimidazol-1-yl)-phenyl]-benzamide]	100 to 500
COc1ccc2c(c1)nc(C(F)(F)F)n2-c1ccc(NC(=O)C2CC2c2ccccc2)cc1 (stereo not drawn) [Compound 90, 2-Phenyl-N-[4-(2-trifluoromethyl-5-methoxy-benzoimidazol-1-yl)-phenyl]-cyclopropanecarboxylic acid amide]	100 to 500

Second part, the molecule after the results:

IC50 [nM]	Structure (SMILES)
100 to 500	CC(C)(C)c1cnc(-c2ccc3c(c2)nc(C(F)(F)F)n3-c2ccc(NC(=O)c3ccco3)cc2)o1 [Compound 69, Furan-2-carboxylic acid (N-{4-[2-trifluoromethyl-5-(5-tert-butyl-oxazol-2-yl)-benzoimidazol-1-yl]-phenyl}) amide]
100 to 500	O=C(Nc1ccc(-c2c(C(F)(F)F)nc3ccccn23)cc1)c1cccc(F)c1F [Compound 70, 2,3-Difluoro-N-[4-(2-trifluoromethyl-imidazo[1,2-a]pyrid-3-yl)-phenyl]-benzamide]
< 100	COc1ccc2c(c1)nc(C(F)(F)F)n2-c1ccc(NC(=O)c2cc(F)c(F)c(F)c2F)cc1 [Compound 71, 2,3,4,5-Tetrafluoro-N-[4-(2-trifluoromethyl-5-methoxy-benzoimidazol-1-yl)-phenyl]-benzamide]
100 to 500	COc1ccc2c(c1)nc(C(F)(F)F)n2-c1ccc(NC(=O)c2ccc(-c3ccccc3)cc2)cc1 [Compound 72, 4-Phenyl-N-[4-(2-trifluoromethyl-5-methoxy-benzoimidazol-1-yl)-phenyl]-benzamide]
100 to 500	COc1ccc2c(c1)nc(C(F)(F)F)n2-c1ccc(NC(=O)c2ccc(I)cc2)cc1 [Compound 73, 4-Iodo-N-[4-(2-trifluoromethyl-5-methoxy-benzoimidazol-1-yl)-phenyl]-benzamide]
< 100	COC(=O)c1ccc2c(c1)nc(C(F)(F)F)n2-c1ccc(NC(=O)c2cccc(F)c2F)cc1 [Compound 96, 2-Trifluoromethyl-1-[4-(2,3-difluoro-benzoylamimo)-phenyl]-1H-benzoimidazole-5-carboxylic acid methyl ester]
< 100	COc1ccc2c(c1)nc(C(F)(F)F)n2-c1ccc(NC(=O)c2c(F)c(F)c(F)c(F)c2F)cc1 [Compound 97, 2,3,4,5,6-Pentafluoro-N-[4-(2-trifluoromethyl-5-methoxy-benzoimidazol-1-yl)-phenyl]-benzamide]
< 100	COc1ccc2c(c1)nc(C(F)(F)F)n2-c1ccc(NC(=O)c2ccc(F)cc2F)cc1 [Compound 98, 2,4-Difluoro-N-[4-(2-trifluoromethyl-5-methoxy-benzoimidazol-1-yl)-phenyl]-benzamide]
< 100	O=C(Nc1ccc(-n2c(C(F)(F)F)nc3cc(O)ccc32)cc1)c1cccc(F)c1F [Compound 99, 2,3-Difluoro-N-[4-(2-trifluoromethyl-5-hydroxy-benzoimidazol-1-yl)-phenyl]-benzamide]
< 100	COc1ccc2c(c1)nc(C(F)(F)F)n2-c1ccc(NC(=O)c2cc(F)ccc2F)cc1 [Compound 100, 2,5-Difluoro-N-[4-(2-trifluoromethyl-5-methoxy-benzoimidazol-1-yl)-phenyl]-benzamide]
< 100	COc1ccc2c(c1)nc(C(F)(F)F)n2-c1ccc(NC(=O)c2cccc(C#N)c2)cc1 [Compound 101, 3-Cyano-N-[4-(2-trifluoromethyl-5-methoxy-benzoimidazol-1-yl)-phenyl]-benzamide]
< 100	COc1ccc2c(c1)nc(C(F)(F)F)n2-c1ccc(NC(=O)c2c(Cl)cccc2Cl)cc1 [Compound 102, 2,6-Dichloro-N-[4-(2-trifluoromethyl-5-methoxy-benzoimidazol-1-yl)-phenyl]-benzamide]
< 100	COc1ccc2c(c1)nc(C(F)(F)F)n2-c1ccc(NC(=O)c2ccccc2Br)cc1 [Compound 104, 2-Bromo-N-[4-(2-trifluoromethyl-5-methoxy-benzoimidazol-1-yl)-phenyl]-benzamide]
< 100	COc1ccc2c(c1)nc(C(F)(F)F)n2-c1ccc(NC(=O)C2CCCC2)cc1 [Compound 105, N-[4-(2-trifluoromethyl-5-methoxy-benzoimidazol-1-yl)-phenyl]-cyclopentanecarboxylic acid amide]
< 100	COc1ccc2c(c1)nc(C(F)(F)F)n2-c1ccc(NC(=O)C2CCCCC2)cc1 [Compound 106, N-[4-(2-trifluoromethyl-5-methoxy-benzoimidazol-1-yl)-phenyl]-cyclohexanecarboxylic acid amide]
< 100	COc1ccc2c(c1)nc(C(F)(F)F)n2-c1ccc(NC(=O)c2ccccc2[N+](=O)[O-])cc1 [Compound 107, 2-Nitro-N-[4-(2-trifluoromethyl-5-methoxy-benzoimidazol-1-yl)-phenyl]-benzamide]
< 100	COc1ccc2c(c1)nc(C(F)(F)F)n2-c1ccc(NC(=O)c2ccc(Cl)cc2)cc1 [Compound 108, 4-Chloro-N-[4-(2-trifluoromethyl-5-methoxy-benzoimidazol-1-yl)-phenyl]-benzamide]
< 100	COc1ccc2c(c1)nc(C(F)(F)F)n2-c1ccc(NC(=O)c2cccc(Cl)c2)cc1 [Compound 109, 3-Chloro-N-[4-(2-trifluoromethyl-5-methoxy-benzoimidazol-1-yl)-phenyl]-benzamide]
< 100	COc1ccc2c(c1)nc(C(F)(F)F)n2-c1ccc(NC(=O)c2ccc(F)c(F)c2)cc1 [Compound 110, 3,4-Difluoro-N-[4-(2-trifluoromethyl-5-methoxy-benzoimidazol-1-yl)-phenyl]-benzamide]
< 100	COc1ccc2c(c1)nc(C(F)(F)F)n2-c1ccc(NC(=O)c2ccccc2)cc1 [Compound 111, N-[4-(2-trifluoromethyl-5-methoxy-benzoimidazol-1-yl)-phenyl]-benzamide]
